Consider 18 molecules from patent publication US20230382924A1, “MODULATORS OF CYSTIC FIBROSIS TRANSMEMBRANE CONDUCTANCE REGULATOR” (VERTEX PHARMACEUTICALS INCORPORATED, priority 2020, published 2023).

Broadly, the EC50 is the concentration needed to bring the measured effect to its halfway point.

Each structure is given as a SMILES string. Read-outs that look alike come from different tables or passages of the source.

The experiment concerns the target CFTR (Homo sapiens, UniProt P13569). Put plainly: Membrane Potential Dye, Enteroid Assay A. The format is cell-based. To be noted: for EC50: read-out: Ent. A EC50. As for the experimental part:
Base medium (ADF+++) consisted of Advanced DMEM/Ham's F12, 2 mM Glutamax, 10 mM HEPES, […] penicillin/streptomycin.
Bath 1 Buffer consisted of 1 mM MgCl2, 160 mM NaCl, 4.5 mM KCl, 10 mM HEPES, 10 mM Glucose, 2 mM CaCl2).
Chloride Free Buffer consisted of 1 mM Magnesium Gluconate, 2 mM Calcium Gluconate, 4.5 mM Potassium Gluconate, 160 mM Sodium Gluconate, 10 mM HEPES, 10 mM Glucose.
Bath 1 Dye Solution consisted of Bath 1 Buffer, 0.04% Pluronic F127, 20 μM Methyl Oxonol, 30 μM CaCCinh-A01, 30 μM Chicago Sky Blue.
Chloride Free Dye Solution consisted of Chloride Free Buffer, 0.04% Pluronic F127, 20 μM Methyl Oxonol, 30 μM CaCCinh-A01, 30 μM Chicago Sky Blue.
3. Enteroid Cell Harvesting and Seeding
Cells were recovered in cell recovery solution, collected by centrifugation at 650 rpm for 5 min at 4° C., resuspended in TryPLE and incubated for 5 min at 37° C. Cells were then collected by centrifugation at 650 rpm for 5 min at 4° C. and resuspended in IEMM containing 10 μM ROCK inhibitor (RI).
4. Membrane Potential Dye, Enteroid Assay A
Briefly, cells were washed 5 times in Bath 1 Buffer. Bath 1 Dye Solution was added, and the cells were incubated for 25 min at room temperature. Following dye incubation, cells were washed 3 times in Chloride Free Dye Solution. Chloride transport was initiated by addition of Chloride Free Dye Stimulation Solution and the fluorescence signal was read for 15 min. […] Chloride transport was then expressed as a percentage of the chloride transport following treatment with 3 μM N-[(6-amino-2-pyridyl)sulfonyl]-6-(3-fluoro-5-isobutoxy-phenyl)-2-[(4S)-2,2,4-trimethylpyrrolidin-1-yl]pyridine-3-carboxamide, 3 μM (R)-1-(2,2-difluorobenzo[d][1,3]dioxol-5-yl)-N-(1-(2,3-dihydroxypropyl)-6-fluoro-2-(1-hydroxy-2-methylpropan-2-yl)-1H-indol-5-yl)cyclopropanecarboxamide and 300 nM acute N-[2,4-bis(1,1-dimethylethyl)-5-hydroxyphenyl]-1,4-dihydro-4-oxoquinoline-3-carboxamide triple combination control (% Activity).

Sequence of CFTR (P13569 with tags, fused parts or gaps DEL508-508): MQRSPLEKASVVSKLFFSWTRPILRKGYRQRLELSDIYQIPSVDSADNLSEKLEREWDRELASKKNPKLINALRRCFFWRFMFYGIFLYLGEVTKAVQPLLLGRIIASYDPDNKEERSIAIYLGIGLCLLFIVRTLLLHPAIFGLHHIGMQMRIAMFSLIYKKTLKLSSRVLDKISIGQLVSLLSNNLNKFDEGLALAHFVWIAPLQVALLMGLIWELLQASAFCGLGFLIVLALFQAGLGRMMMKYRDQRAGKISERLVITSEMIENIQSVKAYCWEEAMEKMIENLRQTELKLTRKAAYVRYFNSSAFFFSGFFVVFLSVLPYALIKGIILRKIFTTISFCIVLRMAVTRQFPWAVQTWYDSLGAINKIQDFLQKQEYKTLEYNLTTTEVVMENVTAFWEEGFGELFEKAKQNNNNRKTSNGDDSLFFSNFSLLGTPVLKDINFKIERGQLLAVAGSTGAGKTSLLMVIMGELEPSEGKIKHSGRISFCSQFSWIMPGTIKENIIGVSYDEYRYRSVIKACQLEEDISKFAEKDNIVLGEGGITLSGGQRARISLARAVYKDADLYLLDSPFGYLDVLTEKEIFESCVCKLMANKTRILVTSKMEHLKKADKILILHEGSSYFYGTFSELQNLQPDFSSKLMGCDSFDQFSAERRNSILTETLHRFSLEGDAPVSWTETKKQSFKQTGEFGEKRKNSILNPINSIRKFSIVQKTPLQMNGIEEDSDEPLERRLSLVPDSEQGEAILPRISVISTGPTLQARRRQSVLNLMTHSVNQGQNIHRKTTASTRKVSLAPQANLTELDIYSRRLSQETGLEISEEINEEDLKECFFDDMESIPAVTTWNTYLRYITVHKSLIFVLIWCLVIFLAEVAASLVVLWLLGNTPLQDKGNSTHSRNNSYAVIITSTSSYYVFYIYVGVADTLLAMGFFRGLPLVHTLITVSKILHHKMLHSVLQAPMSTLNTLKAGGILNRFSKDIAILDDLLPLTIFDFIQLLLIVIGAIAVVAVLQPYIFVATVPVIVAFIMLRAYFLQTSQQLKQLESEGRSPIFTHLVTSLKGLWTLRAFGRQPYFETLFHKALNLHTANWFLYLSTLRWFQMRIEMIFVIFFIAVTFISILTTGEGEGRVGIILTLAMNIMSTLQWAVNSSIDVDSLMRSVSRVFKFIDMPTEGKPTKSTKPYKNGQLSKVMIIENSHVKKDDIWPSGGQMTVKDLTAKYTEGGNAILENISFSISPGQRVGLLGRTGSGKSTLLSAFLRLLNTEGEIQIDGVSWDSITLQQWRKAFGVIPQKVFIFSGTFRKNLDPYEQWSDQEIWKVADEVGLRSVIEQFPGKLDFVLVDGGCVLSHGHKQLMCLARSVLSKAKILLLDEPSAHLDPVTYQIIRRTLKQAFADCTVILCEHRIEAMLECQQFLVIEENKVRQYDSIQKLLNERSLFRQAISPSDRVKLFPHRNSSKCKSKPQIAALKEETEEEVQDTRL

Take `Cc1cccc(C)c1-c1cc2nc(n1)NS(=O)(=O)c1cccc(c1)C(=O)NCC(c1ccc(Br)cc1)O2` (racemic) [Compound 18, 10-(4-Bromophenyl)-6-(2,6-dimethylphenyl)-2,2-dioxo-9-oxa-2λ^6-thia-3,5,12,19-tetrazatricyclo[12.3.1.14,8]nonadeca-1(18),4(19),5,7,14,16-hexaen-13-one]: where the note is “Table 8”, the “Ent. A Max Activity” value is “+++ (+++ is >60%)” and the EC50 was < 1 µM.
On to `Cc1cccc(C)c1-c1cc2nc(n1)NS(=O)(=O)c1cccc(c1)C(=O)NC[C@@H](c1ccc(C(C)(C)C)cn1)O2` (single isomer, unassigned) [Compound 8, 10-(5-tert-butyl-2-pyridyl)-6-(2,6-dimethylphenyl)-2,2-dioxo-9-oxa-2λ^6-thia-3,5,12,19-tetrazatricyclo[12.3.1.14,8]nonadeca-1(18),4(19),5,7,14,16-hexaen-13-one], for which the “Ent. A Max Activity” value (Table 8) is listed as “+ (+ is <30%)”.
As for `Cc1cccc(C)c1-c1cc2nc(n1)NS(=O)(=O)c1cccc(c1)C(=O)NCC(c1ccc(C3(C(F)(F)F)CC3)cc1)O2` (single isomer, unassigned) [Compound 10, 6-(2,6-dimethylphenyl)-2,2-dioxo-10-[4-[1-(trifluoromethyl)cyclopropyl]phenyl]-9-oxa-2λ^6-thia-3,5,12,19-tetrazatricyclo[12.3.1.14,8]nonadeca-1(18),4(19),5,7,14,16-hexaen-13-one], the EC50 (Table 8) was < 1 µM.
As to `Cc1cccc(C)c1-c1cc2nc(n1)NS(=O)(=O)c1cccc(c1)C(=O)NCC(c1ccc(C3CCC3)cc1)O2` (single isomer, unassigned) [Compound 13, 10-(4-Cyclobutylphenyl)-6-(2,6-dimethylphenyl)-2,2-dioxo-9-oxa-2λ^6-thia-3,5,12,19-tetrazatricyclo[12.3.1.14,8]nonadeca-1(18),4(19),5,7,14,16-hexaen-13-one], where the note is “Table 9”, the “Ent. A Max Activity” value is “+ (+ is <30%)” and the EC50 is < 1 µM.
Regarding `Cc1cccc(C)c1-c1cc2nc(n1)NS(=O)(=O)c1cccc(c1)C(=O)NCC(c1ccc(C3CCC3)cc1)O2` (single isomer, unassigned) [Compound 14, 10-(4-cyclobutylphenyl)-6-(2,6-dimethylphenyl)-2,2-dioxo-9-oxa-2λ^6-thia-3,5,12,19-tetrazatricyclo[12.3.1.14,8]nonadeca-1(18),4(19),5,7,14,16-hexaen-13-one], where the note is “Table 9”, the “Ent. A Max Activity” value is “+++ (+++ is >60%)” and the EC50 was < 1 µM.
With `Cc1cccc(C)c1-c1cc2nc(n1)NS(=O)(=O)c1cccc(c1)C(=O)NCC(c1ccc([Si](C)(C)C)cc1)O2` (single isomer, unassigned) [Compound 16, 6-(2,6-Dimethylphenyl)-2,2-dioxo-10-(4-trimethylsilylphenyl)-9-oxa-2λ^6-thia-3,5,12,19-tetrazatricyclo[12.3.1.14,8]nonadeca-1(18),4(19),5,7,14,16-hexaen-13-one], the concentration for a half-maximal effect (EC50) (Table 9) is < 1 µM.
`Cc1cccc(C)c1-c1cc2nc(n1)NS(=O)(=O)c1cccc(c1)C(=O)NCC(c1ccc(Br)cc1)O2` (single isomer, unassigned) [Compound 19, 10-(4-bromophenyl)-6-(2,6-dimethylphenyl)-2,2-dioxo-9-oxa-2λ^6-thia-3,5,12,19-tetrazatricyclo[12.3.1.14,8]nonadeca-1(18),4(19),5,7,14,16-hexaen-13-one]: the “Ent. A Max Activity” value (Table 8) is reported as “+ (+ is <30%)”.
Turning to `Cc1cccc(C)c1-c1cc2nc(n1)NS(=O)(=O)c1cccc(c1)C(=O)NCC(c1ccc(Br)cc1)O2` (single isomer, unassigned) [Compound 20, 10-(4-bromophenyl)-6-(2,6-dimethylphenyl)-2,2-dioxo-9-oxa-2λ^6-thia-3,5,12,19-tetrazatricyclo[12.3.1.14,8]nonadeca-1(18),4(19),5,7,14,16-hexaen-13-one], the 50% effective concentration (EC50) (Table 8) was < 1 µM.
Turning to `Cc1cccc(C)c1-c1cc2nc(n1)NS(=O)(=O)c1cccc(c1)C(=O)N[C@@H](CCC(C)(C)C)CO2` (single isomer, unassigned) [Compound 48], under “Table 8”, the “Ent. A Max Activity” value is “+ (+ is <30%)” and the EC50 was < 1 µM.
As for `Cc1cccc(C)c1-c1cc2nc(n1)NS(=O)(=O)[C@H]1CC[C@H]1C(=O)N[C@H](CC(C)C)CO2` (single isomer, unassigned) [Compound 71], the “Ent. A Max Activity” value (Table 9) is recorded as “+ (+ is <30%)”.
Still for that read-out and setting: then `Cc1cccc(C)c1-c1cc2nc(n1)NS(=O)(=O)[C@H]1CC[C@H]1C(=O)N[C@H](CC(C)C)CO2` (single isomer, unassigned) [Compound 72], with “+ (+ is <30%)”.
For the molecule `Cc1cccc(C)c1-c1cc2nc(n1)NS(=O)(=O)c1cccc(c1)C(=O)NC1CC(CN(CCC(C)(C)C)C1)O2` (single isomer, unassigned) [Compound 79, 5-(3,3-dimethylbutyl)-19-(2,6-dimethylphenyl)-2-oxa-15λ^6-thia-5,8,16,18,21-pentaazatetracyclo[15.3.1.13,7.110,14]tricosa-1(20),10,12,14(22),17(21),18-hexaene-9,15,15-trione], under “Enteroid Assay A”, the “Ent. A Max Activity” value was “++ (++ is 30-60%)” and the concentration giving a half-maximal response (EC50) was < 1 µM.
On the same counts, the results for `Cc1cccc(C)c1-c1cc2nc(n1)NS(=O)(=O)c1cccc(c1)C(=O)NC1CC(CN(CCC(C)(C)C)C1)O2` (single isomer, unassigned) [Compound 80, 5-(3,3-Dimethylbutyl)-19-(2,6-dimethylphenyl)-2-oxa-15λ^6-thia-5,8,16,18,21-pentaazatetracyclo[15.3.1.13,7.110,14]tricosa-1(20),10,12,14(22),17(21),18-hexaene-9,15,15-trione] are “++ (++ is 30-60%)” and 1 to 3 µM.
As to `Cc1cccc(C)c1-c1cc2nc(n1)NS(=O)(=O)c1cccc(c1)C(=O)N[C@@H]1CCN(C(=O)OC(C)(C)C)C[C@H]1O2` (single isomer, unassigned) [Compound 87, tert-butyl 20-(2,6-dimethylphenyl)-10,16,16-trioxo-2-oxa-16λ^6-thia-5,9,17,19,22-pentaazatetracyclo[16.3.1.111,15.03,8]tricosa-1(21),11(23),12,14,18(22),19-hexaene-5-carboxylate], under “Table 9”, the “Ent. A Max Activity” value is listed as “+++ (+++ is >60%)” and the EC50 was 1 to 3 µM.
`Cc1cccc(C)c1-c1cc2nc(n1)NS(=O)(=O)c1cccc(c1)C(=O)N[C@@H]1CCN(C(=O)OC(C)(C)C)C[C@H]1O2` (single isomer, unassigned) [Compound 88, tert-Butyl 20-(2,6-dimethylphenyl)-10,16,16-trioxo-2-oxa-16λ^6-thia-5,9,17,19,22-pentaazatetracyclo[16.3.1.111,15.03,8]tricosa-1(21),11(23),12,14,18(22),19-hexaene-5-carboxylate]: the “Ent. A Max Activity” value (Table 9) was “+ (+ is <30%)”.
Same read-out and setting: then `Cc1cccc(C)c1-c1cc2nc(n1)NS(=O)(=O)c1cccc(c1)C(=O)N[C@@H]1CCN(CCC(C)(C)C)C[C@H]1O2` (single isomer, unassigned) [Compound 89, 5-(3,3-Dimethylbutyl)-20-(2,6-dimethylphenyl)-2-oxa-16λ^6-thia-5,9,17,19,22-pentaazatetracyclo[16.3.1.111,15.03,8]tricosa-1(21),11(23),12,14,18(22),19-hexaene-10,16,16-trione], with “+ (+ is <30%)”.
With `Cc1cccc(C)c1-c1cc2nc(n1)NS(=O)(=O)c1cccc(c1)C(=O)N[C@H]1CCN(CCC(C)(C)C)C[C@H]1O2` (single isomer, unassigned) [Compound 90, 5-(3,3-dimethylbutyl)-20-(2,6-dimethylphenyl)-2-oxa-16λ^6-thia-5,9,17,19,22-pentaazatetracyclo[16.3.1.111,15.03,8]tricosa-1(21),11(23),12,14,18(22),19-hexaene-10,16,16-trione], where the note is “Table 9”, the “Ent. A Max Activity” value was “+++ (+++ is >60%)” and the EC50 was in the range of 1 to 3 µM.
Regarding `Cc1cccc(C)c1-c1cc2nc(n1)NS(=O)(=O)c1cccc(c1)C(=O)N[C@@H]1CCN(Cc3ccc(C(C)(C)C)cc3)C[C@@H]1O2` (single isomer, unassigned) [Compound 91, 5-[(4-tert-butylphenyl)methyl]-20-(2,6-dimethylphenyl)-2-oxa-16λ^6-thia-5,9,17,19,22-pentaazatetracyclo[16.3.1.111,15.03,8]tricosa-1(21),11(23),12,14,18(22),19-hexaene-10,16,16-trione], for the setting “Table 9”, the “Ent. A Max Activity” value was “+++ (+++ is >60%)” and the concentration giving a half-maximal response (EC50) is < 1 µM.
